Among the data in PubChem BioAssay AID1259407 (Chemical Carcinogenesis Research Information System (CCRIS), 2018) are mutagenic call values, retold here.

Activity calls are given as the source filed them. No rule for the calls is given here.

The subject of the data set is CCRIS mutagenicity, Ames/micronucleus/aberration tests. Briefly: CCRIS mutagenicity studies.
Setting [1] is: Test System: AMES SALMONELLA TYPHIMURIUM, Strain/Indicator: TA98, Metabolic Activation: NONE, Method: STANDARD PLATE.
Setting [2] is: Test System: AMES SALMONELLA TYPHIMURIUM, Strain/Indicator: TA98, Metabolic Activation: RAT, LIVER, S-9, AROCLOR 1254, Method: STANDARD PLATE.
[3] abbreviates: Test System: AMES SALMONELLA TYPHIMURIUM, Strain/Indicator: TA100, Metabolic Activation: HAMSTER, LIVER, S-9, AROCLOR 1254 (10%), Method: PREINCUBATION
The mark [4] stands for this setting: Test System: AMES SALMONELLA TYPHIMURIUM, Strain/Indicator: TA100, Metabolic Activation: RAT, LIVER, S-9, AROCLOR 1254 (10%), Method: PREINCUBATION
The mark [5] stands for this setting: Test System: AMES SALMONELLA TYPHIMURIUM, Strain/Indicator: TA1535, Metabolic Activation: HAMSTER, LIVER, S-9, AROCLOR 1254 (10%), Method: PREINCUBATION
Where [6] appears, read: Test System: AMES SALMONELLA TYPHIMURIUM, Strain/Indicator: TA1535, Metabolic Activation: RAT, LIVER, S-9, AROCLOR 1254 (10%), Method: PREINCUBATION

As for `O=Nc1ccc2c(c1)Cc1ccccc1-2`, the mutagenic call runs as follows: under setting [1], “active; positive”; under setting [2], “active; positive”; (Test System: AMES SALMONELLA TYPHIMURIUM, Strain/Indicator: TA98, Metabolic Activation: S-9, Method: STANDARD PLATE) “active; positive”; (Test System: AMES SALMONELLA TYPHIMURIUM, Strain/Indicator: TA100, Metabolic Activation: NONE, Method: STANDARD PLATE) “active; positive”; (Test System: AMES SALMONELLA TYPHIMURIUM, Strain/Indicator: TA100, Metabolic Activation: S-9, Method: STANDARD PLATE) “active; positive”; (Test System: AMES SALMONELLA TYPHIMURIUM, Strain/Indicator: TA1538, Metabolic Activation: NONE, Method: STANDARD PLATE) “active; positive”.

For the compound `ClCC1CO1` (centres undefined), the mutagenic call (End Point: IN VITRO CHROMOSOMAL ABERRATIONS, Test System: CHL CELLS, Metabolic Activation: NONE) was “active; positive (structural changes)”; the mutagenic call (End Point: IN VITRO CHROMOSOMAL ABERRATIONS, Test System: CHL CELLS, Metabolic Activation: RAT, LIVER, S-9, SODIUM PHENOBARBITAL AND 5,6-BENZOFLAVONE) was “active; positive (structural changes)”; the mutagenic call (Test System: AMES SALMONELLA TYPHIMURIUM, Strain/Indicator: G46, Metabolic Activation: NONE, Method: STANDARD PLATE) is “active; positive”; the mutagenic call (Test System: AMES SALMONELLA TYPHIMURIUM, Strain/Indicator: TA97, Metabolic Activation: NONE, Method: STANDARD PLATE) is “active; positive”; the mutagenic call (Test System: AMES SALMONELLA TYPHIMURIUM, Strain/Indicator: TA97, Metabolic Activation: RAT, LIVER, S-9, AROCLOR 1254, Method: STANDARD PLATE) is “inactive; negative”; the mutagenic call under setting [1] is “inactive; negative”. Moreover, the mutagenic call reads like this: (Test System: AMES SALMONELLA TYPHIMURIUM, Strain/Indicator: TA98, Metabolic Activation: RAT LIVER S-9, PHENOBARBITAL AND BETA-NAPHTHOFLAVONE, Method: PREINCUBATION) “active; positive”; under setting [2], “inactive; negative”; (Test System: AMES SALMONELLA TYPHIMURIUM, Strain/Indicator: TA98, Metabolic Activation: S-9, Method: PREINCUBATION) “inactive; negative”; under setting [3], “active; positive”; (Test System: AMES SALMONELLA TYPHIMURIUM, Strain/Indicator: TA100, Metabolic Activation: RAT LIVER S-9, PHENOBARBITAL AND BETA-NAPHTHOFLAVONE, Method: PREINCUBATION) “active; positive”; under setting [4], “active; positive”. Further, the mutagenic call is “active; positive” (Test System: AMES SALMONELLA TYPHIMURIUM, Strain/Indicator: TA100, Metabolic Activation: S-9, Method: PREINCUBATION); “active; positive” (Test System: AMES SALMONELLA TYPHIMURIUM, Strain/Indicator: TA104, Metabolic Activation: NONE, Method: STANDARD PLATE); “active; positive” under setting [5]; “active; positive” (Test System: AMES SALMONELLA TYPHIMURIUM, Strain/Indicator: TA1535, Metabolic Activation: NONE, Method: DESICCATOR); “active; positive” (Test System: AMES SALMONELLA TYPHIMURIUM, Strain/Indicator: TA1535, Metabolic Activation: NONE, Method: STANDARD PLATE); “active; positive” (Test System: AMES SALMONELLA TYPHIMURIUM, Strain/Indicator: TA1535, Metabolic Activation: RAT LIVER S-9, PHENOBARBITAL AND BETA-NAPHTHOFLAVONE, Method: PREINCUBATION). The mutagenic call runs as follows: under setting [6], “active; positive”; (Test System: AMES SALMONELLA TYPHIMURIUM, Strain/Indicator: TA1535, Metabolic Activation: RAT, LIVER, S-9, AROCLOR 1254, Method: STANDARD PLATE) “active; positive”; (Test System: AMES SALMONELLA TYPHIMURIUM, Strain/Indicator: TA1535, Metabolic Activation: S-9, Method: PREINCUBATION) “active; positive”; (Test System: AMES SALMONELLA TYPHIMURIUM, Strain/Indicator: TA1537, Metabolic Activation: NONE, Method: STANDARD PLATE) “inactive; negative”; (Test System: AMES SALMONELLA TYPHIMURIUM, Strain/Indicator: TA1537, Metabolic Activation: RAT LIVER S-9, PHENOBARBITAL AND BETA-NAPHTHOFLAVONE, Method: PREINCUBATION) “inactive; negative”; (Test System: AMES SALMONELLA TYPHIMURIUM, Strain/Indicator: TA1537, Metabolic Activation: RAT, LIVER, S-9, AROCLOR 1254, Method: STANDARD PLATE) “inactive; negative”. Also, the mutagenic call reads like this: (Test System: AMES SALMONELLA TYPHIMURIUM, Strain/Indicator: TA1537, Metabolic Activation: S-9, Method: PREINCUBATION) “inactive; negative”; (Test System: AMES SALMONELLA TYPHIMURIUM, Strain/Indicator: TA4001, Metabolic Activation: NONE, Method: STANDARD PLATE) “active; positive”; (Test System: AMES SALMONELLA TYPHIMURIUM, Strain/Indicator: TA4006, Metabolic Activation: NONE, Method: STANDARD PLATE) “active; positive”; (Test System: CHINESE HAMSTER V-79, Strain/Indicator: V-79/6-THIOGUANINE, Metabolic Activation: NONE, Method: FLASK ASSAY) “inactive; negative”; (Test System: E. COLI, Strain/Indicator: WP2, Metabolic Activation: NONE, Method: STANDARD PLATE) “active; positive”; (Test System: E. COLI, Strain/Indicator: WP2, Metabolic Activation: RAT, LIVER, S-9, AROCLOR 1254, Method: STANDARD PLATE) “active; positive”. Further, the mutagenic call (Test System: E. COLI, Strain/Indicator: WP2 UVRA, Metabolic Activation: NONE, Method: PREINCUBATION) was “active; positive”; the mutagenic call (Test System: E. COLI, Strain/Indicator: WP2 UVRA, Metabolic Activation: NONE, Method: STANDARD PLATE) is “active; positive”; the mutagenic call (Test System: E. COLI, Strain/Indicator: WP2 UVRA, Metabolic Activation: RAT, LIVER, S-9, AROCLOR 1254, Method: STANDARD PLATE) was “active; positive”; the mutagenic call (Test System: E. COLI, Strain/Indicator: WP2 UVRA, Metabolic Activation: S-9, Method: PREINCUBATION) was “active; positive”; the mutagenic call (Test System: E.COLI, Strain/Indicator: WP2UVRA, Metabolic Activation: NONE, Method: PREINCUBATION) is “active; positive”; the mutagenic call (Test System: E.COLI, Strain/Indicator: WP2UVRA, Metabolic Activation: RAT LIVER S-9, PHENOBARBITAL AND BETA-NAPHTHOFLAVONE, Method: PREINCUBATION) was “active; positive”.

For `[Cl][Pd][Cl]`, the mutagenic call is, setting by setting: (Test System: AMES SALMONELLA TYPHIMURIUM, Strain/Indicator: TA98, Metabolic Activation: HAMSTER, LIVER, S-9, AROCLOR 1254 (10%), Method: PREINCUBATION) “inactive; negative”; (Test System: AMES SALMONELLA TYPHIMURIUM, Strain/Indicator: TA98, Metabolic Activation: NONE, Method: PREINCUBATION) “inactive; negative”; (Test System: AMES SALMONELLA TYPHIMURIUM, Strain/Indicator: TA98, Metabolic Activation: RAT, LIVER, S-9, AROCLOR 1254 (10%), Method: PREINCUBATION) “inactive; negative”; under setting [3], “inactive; negative”; (Test System: AMES SALMONELLA TYPHIMURIUM, Strain/Indicator: TA100, Metabolic Activation: NONE, Method: PREINCUBATION) “inactive; negative”; under setting [4], “inactive; negative”. Also, the mutagenic call runs as follows: under setting [5], “inactive; negative”; (Test System: AMES SALMONELLA TYPHIMURIUM, Strain/Indicator: TA1535, Metabolic Activation: NONE, Method: PREINCUBATION) “inactive; negative”; under setting [6], “inactive; negative”; (Test System: AMES SALMONELLA TYPHIMURIUM, Strain/Indicator: TA1537, Metabolic Activation: HAMSTER, LIVER, S-9, AROCLOR 1254 (10%), Method: PREINCUBATION) “inactive; negative”; (Test System: AMES SALMONELLA TYPHIMURIUM, Strain/Indicator: TA1537, Metabolic Activation: NONE, Method: PREINCUBATION) “inactive; negative”; (Test System: AMES SALMONELLA TYPHIMURIUM, Strain/Indicator: TA1537, Metabolic Activation: RAT, LIVER, S-9, AROCLOR 1254 (10%), Method: PREINCUBATION) “inactive; negative”.
